The subject of the experiment is SW 982 tumor spheroid viability. The experiment in a line: Anticancer human tumor SW 982 cell line growth inhibition.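 For all read-outs here: spheroids exposed to compound for 7 days before readout.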 Particulars: spheroids with HUVEC and MSC; for viability, T/C: stronger effect = lower value. An excerpt: Multicellular complex tumor spheroid response to DNA repair inhibitors in combination with DNA-damaging drugs
This study explores the anticancer activities of DNA-damaging drugs and inhibitors of DNA damage repair, both as single agents and in combinations. Complex tumor spheroids comprised of malignant cells, endothelial cells and mesenchymal stem cells served as an in vitro model for human solid tumors. This model system incorporates physiologically relevant features and patient-derived or established malignant cell lines with clinically relevant genetic alterations from many tumor types. Twenty-six patient-derived or established malignant cell lines were evaluated representing sarcoma, melanoma, small cell lung cancer (SCLC), non-small cell lung cancer (NSCLC), as well as bladder, ovarian and pancreatic cancers. The concentration ranges selected for each drug and investigational agent were based upon clinically achievable concentrations if the clinical Cmax of the agent was known.
Compounds. The drugs and compounds olaparib (NSC753686), talazoparib (NSC767125), berzosertib (NSC777718), elimusertib (NSC800525), nedisertib (NSC802822), VX-984 (NSC792969), AZD-1390 (NSC803789), temozolomide (NSC362856), topotecan (NSC609699), trabectedin (NSC813783), staurosporine (NSC755774), and gemcitabine (NSC613327) were obtained from the National Cancer Institute (NCI) Developmental Therapeutics Program Chemical Repository. The FDA-approved anticancer drug set is available from the Developmental Therapeutics Program at https://dtp.cancer.gov/organization/dscb/obtaining/available_plates.htm. […] The stock solutions were prepared in dimethyl sulfoxide (DMSO, Sigma-Aldrich, St. Louis, MO, cat. D2650) at 400-fold the tested concentration and stored at -70 degrees C. Prior to their use, the stock solutions were diluted in fresh medium and the final DMSO concentration in the assay was 0.25% (v/v). All drugs and investigational agents were tested over a range starting from a high concentration at or near the clinical Cmax and decreasing in half-log increments. If the clinical Cmax for an agent had not been determined, the highest concentration tested was 10 microM.
Cell Lines. The patient-derived cancer cell (PDC) lines: 156681-154-R-J1-PDC, 283228-195-R-J1-PDC, 287954-098-R-J1-PDC, 292921-168-R-J2-PDC, 349418-098-R-PDC, 425362-245-T-J1-PDC, 556581-035-R-J1-PDC, and BL0293-F563-PDC were received from the NCI Patient-Derived Models Repository (PDMR, https://pdmr.cancer.gov). The established cell lines HS-SY-2 (RRID:CVCL_8719), MPNST, and SYO-1 (RRID:CVCL_7146) were obtained from the Sloan Kettering Institute. The alveolar soft parts sarcoma cell line ASPS-1 (RRID:CVCL_S738) was established at the NCI and grown from internal seed stocks. The following established cell lines were purchased from the American Type Culture Collection (ATCC, Manassas, VA): G-401 (ATCC, cat. CRL-1441, RRID:CVCL_0270), SW982 (ATCC, cat. HTB-93, RRID:CVCL_1734), VA-ES-BJ (ATCC, cat. CRL-2138, RRID:CVCL_1785), NCI-H719 (ATCC, cat. CRL-5837, RRID:CVCL_1582), NCI-H196 (ATCC, cat. CRL-5823, RRID:CVCL_1509), NCI-H841 (ATCC, cat. CRL-5845, RRID:CVCL_1595), NCI-H1618 (ATCC, cat. CRL-5879, RRID:CVCL_1480), NCI-H1876 (ATCC, cat. CRL-5902, RRID:CVCL_1503), DMS 114 (ATCC, cat. CRL-2066; RRID:CVCL_1174), NCI-H211 (ATCC, cat. CRL-5824; RRID:CVCL_1529), and SW 1271 (ATCC, cat. CRL-2177, RRID:CVCL_1716). The small cell lung cancer cell line COR-L88 was purchased from Sigma-Aldrich (cat. 92031917-1VL, RRID:CVCL_1141). The non-small cell lung cancer cell lines NCI-H226 (RRID:CVCL_1544) and NCI-H322M (RRID:CVCL_1557) were established at the NCI and grown from internal seed stocks. Pooled donor human umbilical vein endothelial cells (HUVEC, Lonza, cat. CC-2519) and human mesenchymal stem cells (hMSC, Lonza, cat. PT-2501) were purchased from Lonza (Walkersville, MD).
Cell Culture. All cells were maintained in an incubator at 37 degrees C and 5% CO2 with 95% humidity. […]

The structures appear in SMILES notation. Values joined by “and” are separate entries in the source; they are usually repeats but may differ in a detail not shown here. Identical values can stand only once. A value given as a limit tells only on which side of the number the result lay.

Take `[2H]c1nc(C)nc([2H])c1-c1cc(NC[C@@H](C)c2cccc3c(C(=O)NC)ccnc23)ncn1` + COc1cc2c(cc1O)CCNC21CSC2c3c(OC(C)=O)c(C)c4c(c3C(COC1=O)N1C(O)C3Cc5cc(C)c(OC)c(O)c5C(C21)N3C)OCO4: the IC50 (as a rule, the concentration that gives 50% inhibition) by setting is: (curve of first compound, second compound 30 pM) more than 10 µM; (curve of first compound, second compound 94.9 pM) more than 10 µM; (curve of first compound, second compound 0.0003 µM) more than 10 µM; (curve of first compound, second compound 0.000949 µM) less than 0.0316 µM; (curve of first compound, second compound 0.003 µM) less than 0.0316 µM. Also, the viability, T/C (as a rule, the ratio of treated to control) (second compound 30 pM, first compound 0.0316 µM) is 91.1%; the viability, T/C (second compound 30 pM, first compound 0.1 µM) is 100%; the viability, T/C (second compound 30 pM, first compound 0.316 µM) was 98%; the viability, T/C (second compound 30 pM, first compound 1 µM) is 93.3%; the viability, T/C (second compound 30 pM, first compound 3.16 µM) was 90.3%; the viability, T/C (second compound 30 pM, first compound 10 µM) is 101%. The viability, T/C (second compound 94.9 pM, first compound 0.0316 µM) is 95.7%; the viability, T/C (second compound 94.9 pM, first compound 0.1 µM) was 90.7%; the viability, T/C (second compound 94.9 pM, first compound 0.316 µM) was 98.1%; the viability, T/C (second compound 94.9 pM, first compound 1 µM) is 93.8%; the viability, T/C (second compound 94.9 pM, first compound 3.16 µM) was 89.4%; the viability, T/C (second compound 94.9 pM, first compound 10 µM) is 91.2%. In addition, the viability, T/C runs as follows: (second compound 0.0003 µM, first compound 0.0316 µM) 87.2%; (second compound 0.0003 µM, first compound 0.1 µM) 83.2%; (second compound 0.0003 µM, first compound 0.316 µM) 79.4%; (second compound 0.0003 µM, first compound 1 µM) 70.3%; (second compound 0.0003 µM, first compound 3.16 µM) 74.9%; (second compound 0.0003 µM, first compound 10 µM) 75.4%. The viability, T/C was 37.3% (second compound 0.000949 µM, first compound 0.0316 µM); 26.5% (second compound 0.000949 µM, first compound 0.1 µM); 44.4% (second compound 0.000949 µM, first compound 0.316 µM); 44.1% (second compound 0.000949 µM, first compound 1 µM); 42.6% (second compound 0.000949 µM, first compound 3.16 µM); 21.9% (second compound 0.000949 µM, first compound 10 µM). Moreover, the viability, T/C (second compound 0.003 µM, first compound 0.0316 µM) was 0.62%; the viability, T/C (second compound 0.003 µM, first compound 0.1 µM) is 1.1%; the viability, T/C (second compound 0.003 µM, first compound 0.316 µM) is 1.05%; the viability, T/C (second compound 0.003 µM, first compound 1 µM) was 0.69%; the viability, T/C (second compound 0.003 µM, first compound 3.16 µM) was 0.48%; the viability, T/C (second compound 0.003 µM, first compound 10 µM) is 0.77%.

As to `Cn1ncnc1[C@H]1c2n[nH]c(=O)c3cc(F)cc(c23)N[C@@H]1c1ccc(F)cc1`, the viability, T/C by setting is: (compound 0.00949 µM) 80.9% and 90% and 94.8%; (compound 0.03 µM) 93.7% and 94.9% and 97.7%; (compound 0.0949 µM) 88.3% and 90.8% and 91.5%; (compound 0.3 µM) 77.9% and 87.9% and 79.2%; (compound 0.949 µM) 82.8% and 80.2% and 81.8%; (compound 3 µM) 75.7% and 82.9% and 62.9%. Besides, the IC50 (curve of compound) was more than 3 µM.

The values are drawn from PubChem BioAssay AID1845216 (Molecular Pharmacology Branch, DTP, NCI, 2023).
